This note sets out measurements from patent EP0465913B1, “Diaminotrifluoromethylpyrimidine derivatives, process for their production and phospholipase A2 inhibitor containing them” (ISHIHARA SANGYO KAISHA, LTD., priority 1990, dated 1992).

Test [1] deals with carrageenin edema. The test can be described thus: Inhibitory activity on carrageenin edema. Format: in vivo, Wistar male rats. Conditions: rat, paw swelling volume three hours after carrageenin; for Inhibition rate (%): dose 50 mg/kg orally. As for the experimental part:
Using Wistar male rats (body weight: about 100 g), each test group consisted of 5 rats. A test compound was mixed with Tween 80 [polyoxyethylenesorbitan monooleate (manufactured by Nacalai Tesque K.K.)], and distilled water was added thereto to obtain a 2% Tween 80 suspension, or it was dissolved in the form of a salt in water to obtain an aqueous solution. Either the suspension or the aqueous solution was orally administered in an amount of 200 mg/kg, 100 mg/kg, 50 mg/kg or 25 mg/kg. One hour later, 0.1 ml of a 1% λ-carrageenin solution dissolved in a physiological saline was injected subcutaneously to the right hind paw of each rat to cause inflamation. Three hours later, the paw volume was measured by a paw volume measuring device (manufactured by Ugobasiee K.K.). A swelling volume was obtained from the difference from the value before the inflammation. Inhibition rate (%) = (l -(F)/(E)) x 100 [formula] • F: Average swelling volume in the group to which a test compound was administered. • E: Average swelling volume in the control group.
A general note: Carrageenan injected into the paw causes an acute inflammation.

Test [2] deals with T1, Porcine pancreatic phospholipase A2 (Sus scrofa, UniProt P00592).
T1 construct: purchased Boehringer Mannheim·Yamanouchi K.K. 161454·122416
T1 sequence (P00592 23-146): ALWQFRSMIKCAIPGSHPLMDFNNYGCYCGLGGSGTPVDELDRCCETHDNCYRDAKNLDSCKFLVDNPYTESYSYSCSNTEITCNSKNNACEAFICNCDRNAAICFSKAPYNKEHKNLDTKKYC
The test can be described thus: Phospholipase A2 inhibitory activity, method A (egg yolk lecithin substrate). Format: biochemical. As to conditions: 1,000 ppm, 37°C for 30 minutes, read-out: % inhibition of PLA2 (1,000 ppm). As for the experimental part:
To 10 mg of egg yolk lecithin (manufactured by Wako Pure Chemical Industries Ltd.), 1 ml of glycerine, 2 ml of a 50 mM Tris-HCl buffer solution (pH7.5) [Tris(hydroxymethyl)aminomethane (manufactured by Nacalai Tesque K.K.) was adjusted to pH7.5 with hydrochloric acid], 0.5 ml of a 150 mM calcium chloride solution (calcium chloride was dissolved in a 50 mM Tris-HCl buffer solution) and 0.5 ml of a 0.05% Triton-X100 (manufactured by Nacalai Tesque K.K.) solution (Triton-X100 was dissolved in a 50 mM Tris-HCl buffer solution), were added and dispersed by an agate mortar or dispersed by an ultrasonic processor (Model W-225, manufactured by Heat System-Ultrasonics, Inc.) for 5 minutes (30W) to obtain a substrate.
(§1) Porcine pancreatic phospholipase A2 [(161454·122416) manufactured by Boehringer Mannheim·Yamanouchi K.K.] was used.
To a 96 well microtitration plate (flat bottom, manufactured by Sumitomo Bakelite Medical Co., Ltd.), 40 µl of the substrate, 5 µl of a solution prepared by dissolving 10 mg of a test compound in 500 µl of dimethylsulfoxide, followed by an addition of 500 µl of a 50 mM Tris-HCl buffer solution, and 5 µl of an enzyme solution of 20 ng/ml (prepared by diluting the enzyme in a 50 mM Tris-HCl buffer solution), were added and reacted at 37°C for 30 minutes. After termination of the reaction, the released free fatty acid was quantitatively analyzed in accordance with the ACS-ACOD (acyl CoA synthetase-acyl CoA oxidase) method [a kit of NEFA C test wako (manufactured by Wako Pure Chemical Industries, Ltd.) was used]. The quantitative analysis was made by means of Microplate ELISA Reader (Model 2550EIA Reader, manufactured by Bio-Rad Laboratories) at a wavelength of 540 nm. Separately, such experiments as mentioned above, were carried out at various concentrations (2 µg/ml, 1 µg/ml and 0.5 µg/ml) of phospholipase A2 without a test compound. Then, the concentration of the free fatty acid versus the concentration of phospholipase A2 was plotted.
(§2) From this standard curve, the apparent concentration of phospholipase A2 in the case with a test compound, was read. Then, the percent inhibition of the enzyme was calculated by the following formula. Percent inhibition (%) = (l -(A)/(B)) x 100 [formula] • A: Apparent enzyme concentration when a test compound is added. • B: True enzyme concentration when a test compound is added.

The target in test [3] is T1, Porcine pancreatic phospholipase A2. The test can be described thus: Phospholipase A2 inhibitory activity, method B (L-α-dipalmitoylphosphatidylcholine substrate). Format: biochemical. Conditions: 37°C for 30 minutes; for inhibition at 1000 ppm: 1,000 ppm, read-out: % inhibition of PLA2 (1,000 ppm). Here is the method:
To a solution prepared by dissolving 9.2 mg of L-α-dipalmitoylphosphatidylcholine (manufactured by Nichiyu Liposome K.K.) in 0.5 ml of chloroform, a solution prepared by dissolving 32 mg of sodium cholate (manufactured by Wako Pure Chemical Industries, Ltd.) in 0.5 ml of methanol, was added, followed by mixing. The solvent of the mixture was removed under a nitrogen stream, and then 2.5 ml of a 250 mM sodium chloride solution [prepared by dissolving sodium chloride in a 100 mM Tris-HCl buffer solution {tris(hydroxymethyl)aminomethane (manufactured by Nacalai Tesque K.K.) was adjusted to pH8.0 with hydrochloric acid}] was added thereto, and the mixture was dissolved under stirring to obtain a substrate.
as §1
To a 96 well microtitration plate, 20 µl of a solution containing calcium chloride, bovine serum alubmin (manufactured by Sigma Chemical, Co.) and a Tris-HCl buffer solution (pH8.0) at concentrations of 25 mM, 4.5 mg/ml and 100 mM, respectively, 5 µl of a solution prepared by dissolving 10 mg of a test compound in 500 µl of diemthylsulfoxide, followed by an addition of 500 µl of a 200 mM Tris-HCl buffer solution, 5 µl of an enzyme solution (10 µg/ml) [prepared by dissolving the enzyme in a bovine serum alubmin solution (prepared by dissolving bovine serum alubmin in a 100 mM Tris-HCl buffer solution at a concentration of 1 mg/ml)] and 20 µl of the substrate, were added and reacted at 37°C for 30 minutes. After termination of the reaction, the released free fatty acid was quantitatively analyzed in accordance with the ACS-ACOD (acyl CoA synthetase-acyl CoA oxidase) method [a kit of NEFA C test wako (manufactured by Wako Pure Chemical Industries, Ltd.) was used]. The quantitative analysis was made by means of Microplate ELISA Reader (Model 2550EIA Reader, manufactured by Bio-Rad Laboratories) at a wavelength of 540 nm. Separately, such experiments as mentioned above, were carried out at various concentrations (1 µg/ml, 0.75 µg/ml, 0.5 µg/ml and 0.25 µg/ml) of phospholipase A2 without a test compound. Then, the concentration of the free fatty acid versus the concentration of phospholipase A2 was plotted.
as §2

The test system of test [4] is experimental acute pancreatitis model. Put plainly: Effects against acute pancreatitis (Test Example 8, closed duodenal loop method, lesion scores). Format: in vivo, Crj-CD male rats. As to conditions: sodium salt, 6 hours after ventrotomy; for inhibition in vivo at 10 mg/kg: Rattus norvegicus, 10 mg/kg single intravenous injection. Here is the method:
Using Crj-CD male rats, each test group consisted of 3 rats. An experimental acute pancreatitis model was prepared by a closed duodenal loop method under anethesia with halothane (manufactured by Hoechst Japan) and nitrous oxide (manufactured by Sumitomo Seika K.K.) applied by a general inhalation anesthesia machine (Model EM2 and halothane evaporator F-Model). Each compound (subjected to the test in the form of a sodium salt) was continuously intravenously injected into the tail vein in an amount of 0.4 ml/100 g to 0.6 ml/100 g at a rate of 0.05 ml per minute by a pump (Technicon AA II Proportioning Pump III, manufactured by Technicon Instruments Corporation) or rapidly intravenously injected. No injection was made to a control group. Gross pathological examination was conducted upon expiration of 6 hours after the ventrotomy in the case of the group to which the compound was administered. With respect to each of four lesions among pancreatic lesions i.e. petechia, ecchymosis, pancreatic necrosis and abdominal fatty necrosis, the grade and the distribution of lesions were scored with five grades of 0, 0.5, 1, 2 and 3 (severe lesions are 3). The sum of all lesions was designated as scores of pancreatitis lesions, and the sum of the score of petechia and the score of ecchymosis only was designated as scores of hemorrhagic lesions. The pancreatitis inhibition rate (%) and the hemorrhage inhibition rate (%) were obtained by the following formulas, and the results are shown in Table 13. Pancreatitis inhibition rate (%) = (l -(H)/(G)) x 100 [formula] • H: Scores of pancreatitis lesions of the group to which a test compound was administered. • G: Scores of pancreatitis lesions of the control group. Hemorrhage inhibition rate (%) = (l -(J)/(I)) x 100 [formula] • J: Scores of hemorrhagic lesions of the group to which a test compound was administered. • I: Scores of hemorrhagic lesions of the control group.

[5] abbreviates: read-out: Inhibition rate of hemorrhagic lesions (%).
Setting [6] is: read-out: Inhibition rate of pancreatitis lesions (%).

As a reminder, the inhibition is the drop in the measured response relative to a control, in per cent.

Where two headings read alike, the source gives them in different places.

As to `CCOC(=O)NC(=S)Nc1cc(C(F)(F)F)cnc1NS(=O)(=O)c1ccc(C)cc1` [Compound No. 25], in test [1] (po, 3 h, dose 200 mg/kg orally, read-out: Inhibition rate (%)), the inhibition in vivo at 200 mg/kg is 27%. `CCCCS(=O)(=O)Nc1ncc(C(F)(F)F)cc1NC(=O)C(F)(F)C(F)(F)F` [compound 52]: the inhibition at 1000 ppm in test [2] is 49%. Still for that read-out and setting: with `CC(C)S(=O)(=O)Nc1ncc(C(F)(F)F)cc1NC(=O)C(Cl)(Cl)Cl` [compound 50] the figure was 78%.

For `CS(=O)(=O)Nc1ncc(C(F)(F)F)cc1NC(=O)c1ccc(F)cc1` [compound 259], in test [3], the “% inhibition of PLA2 (1,000 ppm)” value is listed as 61%. Moreover, the “Inhibition rate (%)” value in test [1] came out at 17%.

For `CCCCC(CC)C(=O)Nc1cc(C(F)(F)F)cnc1NS(C)(=O)=O` (stereo not shown) [compound 65], in test [3], the inhibition at 1000 ppm came out at 71%. The “Inhibition rate (%)” value in test [1] was 37%. The inhibition in vivo at 10 mg/kg stood at 67% in test [4] (setting [5]) and 74% in test [4] (setting [6]). For `CCCCCCCC(=O)Nc1cc(C(F)(F)F)cnc1NS(C)(=O)=O` [compound 125], the inhibition at 1000 ppm in test [3] came out at 86%. For the same compound, the “Inhibition rate (%)” value in test [1] came to 22%. In the case of `CCCOC(=O)Nc1cc(C(F)(F)F)cnc1NS(=O)(=O)N(C)C` [compound 114], in test [3], the inhibition at 1000 ppm is 53%. Further, in test [1], the “Inhibition rate (%)” value came out at 28%. In addition, the inhibition in vivo at 10 mg/kg in test [4] (setting [5]) stood at 32%; in test [4] (setting [6]), 27%. On to `CCOC(=O)Nc1ncc(C(F)(F)F)cc1NC(=O)OCc1ccccc1` [compound 38], for which the inhibition at 1000 ppm in test [2] stood at 35%. As for `CS(=O)(=O)Nc1ncc(C(F)(F)F)cc1NC(=O)C(F)(F)C(F)(F)C(F)(F)F` [compound 14], the inhibition at 1000 ppm in test [2] worked out at 54%. Also, the “Inhibition rate of hemorrhagic lesions (%)” value in test [4] (19 mg/kg continuous intravenous injection) amounted to 52%. For `O=C(Nc1cc(C(F)(F)F)cnc1NC(=O)C(F)(F)C(F)(F)F)c1ccccc1` [compound 32], in test [2], the inhibition at 1000 ppm was 50%. Regarding `CC(C)S(=O)(=O)Nc1ncc(C(F)(F)F)cc1NC(=O)c1cccc(F)c1` [compound 104], the inhibition at 1000 ppm in test [3] was 61%. Further, the “Inhibition rate (%)” value in test [1] turned out to be 48%.

Take `CCCCCC(=O)Nc1cc(C(F)(F)F)cnc1NS(=O)(=O)N(C)C` [compound 110]: the inhibition at 1000 ppm in test [3] was found to be 58%. Moreover, in test [1], the “Inhibition rate (%)” value turned out to be 25%. As for `CCS(=O)(=O)Nc1ncc(C(F)(F)F)cc1NC(=O)c1ccccc1` [compound 48], the inhibition at 1000 ppm in test [2] amounted to 48%.

Consider `CS(=O)(=O)Nc1ncc(C(F)(F)F)cc1NC(=O)c1ccc2c(c1)CCCC2` [compound 123], for which the inhibition at 1000 ppm in test [3] was 86%. In test [1], the “Inhibition rate (%)” value was 42%. For the same compound, the inhibition in vivo at 10 mg/kg in test [4] (setting [5]) and in test [4] (setting [6]) was 56% throughout. On to `CCOCCC(=O)Nc1cc(C(F)(F)F)cnc1NC(=O)CCOCC` [compound 26], for which the inhibition at 1000 ppm in test [2] is 35%. As to `O=C(Nc1ncc(C(F)(F)F)cc1NC(=O)C1CCCCC1)c1ccccc1` [compound 150], the “Inhibition rate (%)” value in test [1] came to 23%. Take `CC(C)S(=O)(=O)Nc1ncc(C(F)(F)F)cc1NC(=O)C(F)(F)C(F)(F)F` [compound 51]: the inhibition at 1000 ppm in test [2] is 63%. `CCOC(=O)NC(=S)Nc1cc(C(F)(F)F)cnc1NC` [compound 54]: the inhibition at 1000 ppm in test [2] was found to be 37%. On to `CCC(C(=O)Nc1cc(C(F)(F)F)cnc1NS(C)(=O)=O)c1ccccc1` (stereo not shown) [compound 66], for which the inhibition at 1000 ppm in test [3] was determined as 52%. In test [1], the “Inhibition rate (%)” value is reported as 31%. In addition, the inhibition in vivo at 10 mg/kg in test [4] (setting [5]) turned out to be 53%; in test [4] (setting [6]), 63%. Turning to `CS(=O)(=O)Nc1ncc(C(F)(F)F)cc1NC(=O)C1=CCCCC1` [compound 69], in test [3], the inhibition at 1000 ppm worked out at 63%. Further, the “Inhibition rate (%)” value in test [1] turned out to be 25%. `O=C(Nc1cc(C(F)(F)F)cnc1NC(=O)C(F)(F)F)C(Cl)Cl` [compound 29]: in test [2], the inhibition at 1000 ppm was 47%. Turning to `CS(=O)(=O)Nc1ncc(C(F)(F)F)cc1NC(=O)C1CCCCCC1` [compound 67], in test [3], the inhibition at 1000 ppm came out at 82%. Besides, the inhibition in vivo at 25 mg/kg in test [1] (po, 3 h, dose 25 mg/kg orally, read-out: Inhibition rate (%)) came to 19%.

Consider `O=C(Nc1ncc(C(F)(F)F)cc1NC(=O)C(F)(F)F)C(Cl)Cl` [compound 27], for which, in test [2], the inhibition at 1000 ppm came out at 62%. As for `O=C(Nc1ncc(C(F)(F)F)cc1NC(=O)C(Cl)(Cl)Cl)C(F)(F)F` [Compound No. 30, N-(3-trichloroacetylamino-5-trifluoromethyl-2-pyridyl)trifluoroacetamide], the inhibition at 1000 ppm in test [2] worked out at 87%.
